Assay results: patent US12667098B2, “Ready to use plant treatment agent applicator, container and product” (UPL Corporation Limited, priority 2022, dated 2026)

What was measured:
Type in all cases: in vivo
Conditions in all cases: 3 L/ha of glufosinate ammonium 18.5%
Broadleaf dock = assay: Weed control efficacy of glufosinate applied with the applicator: broadleaf dock
Text: (§1) The rate of application was 3 L/ha of glufosinate ammonium 18.5%.

Field horsetail = assay: Weed control efficacy of glufosinate applied with the applicator: field horsetail
Text: as §1

Crabgrass = assay: Weed control efficacy of glufosinate applied with the applicator: crabgrass
Text: as §1

Water foxtail = assay: Weed control efficacy of glufosinate applied with the applicator: water foxtail
Text: as §1

Barnyard grass = assay: Weed control efficacy of glufosinate applied with the applicator: barnyard grass
Text: as §1

[1] = 0.36% applied at 15 ml/m^2, applicator of the disclosure
[2] = 0.56% applied at 10 ml/m^2, applicator of the disclosure

Q: Which results are given for `CP(=O)(O)CCC(N)C(=O)O` (racemic) [glufosinate, glufosinate ammonium]?
A: Control %: Max weed efficacy (Broadleaf dock; [1]): 92%; Control %: Max weed efficacy (Broadleaf dock; [2]): 99%; Control %: Max weed efficacy (Field horsetail; [1]): 76%; Control %: Max weed efficacy (Field horsetail; [2]): 73%; Control %: Max weed efficacy (Crabgrass; [1]): 82%; Control %: Max weed efficacy (Crabgrass; [2]): 81%; Control %: Max weed efficacy (Water foxtail; [1]): 96%; Control %: Max weed efficacy (Water foxtail; [2]): 92%; Control %: Max weed efficacy (Barnyard grass; [1]): 59%; Control %: Max weed efficacy (Barnyard grass; [2]): 55%
